Results: US20250215039A1, “NUCLEOSIDES FOR TREATING CANCER” (PRIMEFOUR THERAPEUTICS, INC., priority 2022, published 2025)
Read-outs that look alike come from different tables or passages of the source.

Tested on: cancer cell lines
Assay: Cancer cell proliferation activity (CellTiterGlo, 72 h)
Assay type: cell-based
Conditions: 72 h, 72 h, read-out: IC50
How it was run: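 Cells seeded overnight at 37 °C, then dosed with compound at 0.1% final DMSO and incubated 72 h at 37 °C (5% or 10% CO2 by medium).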

COC[C@]1(CO)O[C@@H](n2cnc3c(N)nc(F)nc32)C[C@@H]1O [Cpd. No. 140, (2S,3S,5R)-5-(6-amino-2-fluoro-9H-purin-9-yl)-2-(hydroxymethyl)-2-(methoxymethyl)tetrahydrofuran-3-ol]
IC50 (5637 cell line (bladder)): 0.66 µM
IC50 (AS49 cell line (lung)): 4.06 µM
IC50 (CLS439 cell line (bladder)): 9.83 µM
IC50 (HS729 cell line (muscle)): 0.86 µM
IC50 (JAR cell line (placenta)): 0.33 µM
IC50 (Homo sapiens, 22Rv1, 72 h, 22RV1 cell line (prostate)): 1.24 µM
IC50 (Homo sapiens, 786-0, 72 h, 786O cell line (kidney)): 0.4 µM
IC50 (Homo sapiens, A204, 72 h, A204 cell line (muscle)): 0.27 µM
IC50 (Homo sapiens, A673, 72 h, A673 cell line (bone)): 1.95 µM
IC50 (Homo sapiens, A2780, 72 h, A2780 cell line (ovary)): 0.77 µM
IC50 (Homo sapiens, A-375, 72 h, A375 cell line (skin)): 0.21 µM
IC50 (Homo sapiens, A-431, 72 h, A431 cell line (skin)): 0.29 µM
IC50 (Homo sapiens, ACHN, ACHN cell line (kidney)): 2.85 µM
IC50 (Homo sapiens, ASPC1, 72 h, ASPC1 cell line (pancreas)): 0.23 µM
IC50 (Homo sapiens, BT-20, 72 h, BT20 cell line (breast)): 0.39 µM
IC50 (Homo sapiens, BXPC-3, 72 h, BXPC3 cell line (pancreas)): 3.38 µM
IC50 (Homo sapiens, C-33-A, C33A cell line (cervical)): 0.65 µM
IC50 (Homo sapiens, CAKI-1, 72 h, CAKI1 cell line (kidney)): 0.03 µM
IC50 (Homo sapiens, COLO 205, 72 h, COLO205 cell line (colon)): 0.81 µM
IC50 (Homo sapiens, COLO-678, 72 h, COLO678 cell line (colon)): 4.15 µM
IC50 (Homo sapiens, Ca-Ski, CASKI cell line (cervical)): 0.2 µM
IC50 (Homo sapiens, Caco-2, 72 h, CACO2 cell line (colon)): 0.66 µM
IC50 (Homo sapiens, Calu-6, 72 h, CALU6 cell line (lung)): 0.3 µM
IC50 (Homo sapiens, DLD-1, 72 h, DLD1 cell line (colon)): 2.49 µM
IC50 (Homo sapiens, DU-145, 72 h, DU145 cell line (prostate)): 0.16 µM
IC50 (Homo sapiens, EFO-21, 72 h, EFO21 cell line (ovary)): 0.54 µM
IC50 (Homo sapiens, EJ-28, 72 h, EJ28 cell line (bladder)): 0.44 µM
IC50 (Homo sapiens, Granta-519, 72 h, GRANTA-519 cell line (hematological)): 3.46 µM
IC50 (Homo sapiens, HCT-15, 72 h, HCT15 cell line (colon)): 2.07 µM
IC50 (Homo sapiens, HCT-116, 72 h, HCT116 cell line (colon)): 0.62 µM
IC50 (Homo sapiens, HEK293, 72 h, HEK293 cell line (kidney)): 0.46 µM
IC50 (Homo sapiens, HL-60, 72 h, HL-60 cell line (hematological)): 0.67 µM
IC50 (Homo sapiens, HT-29, 72 h, HT29 cell line (colon)): 0.3 µM
IC50 (Homo sapiens, HT-1080, 72 h, HT1080 cell line (connective tissue)): > 50 µM
IC50 (Homo sapiens, HeLa, HELA cell line (cervical)): 0.49 µM
IC50 (Homo sapiens, HepG2, 72 h, HEPG2 cell line (liver)): 0.45 µM
IC50 (Homo sapiens, Hs-578T, HS578T cell line, breast): 0.47 µM
IC50 (Homo sapiens, IGROV-1, 72 h, IGROV1 cell line (ovary)): 0.34 µM
IC50 (Homo sapiens, IMR-90, 72 h, IMR90 cell line, lung): 0.45 µM
IC50 (Homo sapiens, J82, 72 h, J82 cell line (bladder)): 0.38 µM
IC50 (Homo sapiens, JEG-3, 72 h, JEG3 cell line (placenta)): 0.38 µM
IC50 (Homo sapiens, JIMT-1, 72 h, JIMT1 cell line (breast)): 0.09 µM
IC50 (Homo sapiens, K562, 72 h, K-562 cell line (hematological)): 3.95 µM
IC50 (Homo sapiens, Kasumi 1, 72 h, KASUMI-1 cell line (hematological)): 0.08 µM
IC50 (Homo sapiens, L-363, 72 h, L-363 cell line (hematological)): 0.42 µM
IC50 (Homo sapiens, LoVo, LOVO cell line (colon)): 0.19 µM
IC50 (Homo sapiens, MCF7, 72 h, MCF7 cell line (breast)): > 50 µM
IC50 (Homo sapiens, MDA-MB-231, 72 h, MDAMB231 cell line (breast)): 7.32 µM
IC50 (Homo sapiens, MDA-MB-435, 72 h, MDAMB435 cell line (skin)): 1.69 µM
IC50 (Homo sapiens, MDA-MB-436, 72 h, MDAMB436 cell line (breast)): 0.25 µM
IC50 (Homo sapiens, MDA-MB-468, 72 h, MDAMB468 cell line (breast)): 0.24 µM
IC50 (Homo sapiens, MG-63, 72 h, MG63 cell line (bone)): > 50 µM
IC50 (Homo sapiens, MHH-ES-1, 72 h, MHHES1 cell line (bone)): 0.5 µM
IC50 (Homo sapiens, MIA PaCa-2, 72 h, MIAPACA2 cell line (pancreas)): > 50 µM
IC50 (Homo sapiens, MINO, MINO cell line (hematological)): 0.18 µM
IC50 (Homo sapiens, MV4-11, 72 h, MV4-11 cell line (hematological)): 0.16 µM
IC50 (Homo sapiens, NCI-H23, 72 h, NCI-H23 cell line (lung)): 0.64 µM
IC50 (Homo sapiens, NCI-H82, 72 h, NCIH82 cell line (lung)): 0.49 µM
IC50 (Homo sapiens, NCI-H292, 72 h, NCIH292 cell line (lung)): 2.97 µM
IC50 (Homo sapiens, NCI-H460, 72 h, NCIH460 cell line (lung)): 0.6 µM
IC50 (Homo sapiens, OVCAR-3, 72 h, OVCAR3 cell line (ovary)): 0.18 µM
IC50 (Homo sapiens, OVCAR-4, 72 h, OVCAR4 cell line (ovary)): 0.6 µM
IC50 (Homo sapiens, PANC-1, 72 h, PANC1 cell line (pancreas)): > 50 µM
IC50 (Homo sapiens, PC-3, 72 h, PC3 cell line (prostate)): 0.66 µM
IC50 (Homo sapiens, PLC-PRF-5, 72 h, PLCPRF5 cell line (liver)): 4.95 µM
IC50 (Homo sapiens, Panc1005, 72 h, PANC1005 cell line (pancreas)): 0.37 µM
IC50 (Homo sapiens, RD, RD cell line (muscle)): 0.87 µM
IC50 (Homo sapiens, Ramos, RAMOS cell line (hematological)): 0.6 µM
IC50 (Homo sapiens, SAOS-2, 72 h, SAOS2 cell line (bone)): 0.36 µM
IC50 (Homo sapiens, SF-268, 72 h, SF268 cell line (brain)): > 50 µM
IC50 (Homo sapiens, SF-295, 72 h, SF295 cell line (brain)): 1.73 µM
IC50 (Homo sapiens, SK-BR-3, 72 h, SKBR3 cell line (breast)): 0.07 µM
IC50 (Homo sapiens, SK-HEP1, 72 h, SKHEP1 cell line (liver)): 3.41 µM
IC50 (Homo sapiens, SK-LMS-1, 72 h, SKLMS1 cell line (uterus)): 0.34 µM
IC50 (Homo sapiens, SK-MEL-5, 72 h, SKMEL5 cell line, skin): 4.01 µM
IC50 (Homo sapiens, SK-MEL-28, 72 h, SKMEL28 cell line (skin)): 0.67 µM
IC50 (Homo sapiens, SK-N-AS, SKNAS cell line (brain)): 0.63 µM
IC50 (Homo sapiens, SK-N-SH, SKNSH cell line (brain)): 0.32 µM
IC50 (Homo sapiens, SK-OV-3, 72 h, SKOV3 cell line (ovary)): 0.62 µM
IC50 (Homo sapiens, SNB-75, 72 h, SNB75 cell line (brain)): 1.51 µM
IC50 (Homo sapiens, SU-DHL10, 72 h, SU-DHL-10 cell line (hematological)): 0.53 µM
IC50 (Homo sapiens, SU-DHL-6, 72 h, SU-DHL-6 cell line (hematological)): 0.36 µM
IC50 (Homo sapiens, SW-620, 72 h, SW620 cell line (colon)): 0.54 µM
IC50 (Homo sapiens, T-24, 72 h, T24 cell line (bladder)): 0.71 µM
IC50 (Homo sapiens, TE-671, 72 h, TE671 cell line (muscle)): 1.92 µM
IC50 (Homo sapiens, THP-1, 72 h, THP-1 cell line (hematological)): > 50 µM
IC50 (Homo sapiens, U2OS, U2OS cell line (bone)): 0.61 µM
IC50 (Homo sapiens, U-87 MG, U87MG cell line (brain)): 3.66 µM
IC50 (Homo sapiens, UMUC3, 72 h, UMUC3 cell line (bladder)): 3.4 µM
IC50 (Homo sapiens, UO-31, 72 h, UO31 cell line (kidney)): 0.28 µM
IC50 (Homo sapiens, WSU-NHL, WSU-NHL cell line (hematological)): 0.43 µM
IC50 (MT-3, 72 h, MT3 cell line (breast)): 0.36 µM
IC50 (NCI-H358M, NCIH358M cell line (lung)): 0.43 µM
IC50 (PBMC, PBMC (hematological)): > 50 µM
IC50 (RD-ES, RDES cell line (bone)): 0.27 µM
